According to PubChem BioAssay (NCI):
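The compound was tested at five concentrations on cells cultured in 96-well plates, with a 48-hour exposure period. GI50: concentration for 50% inhibition of growth. At the TGI there is no net growth.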

Tests used:
Assay in all cases: NCI tumour cell line growth inhibition, 48 h
[1] = system: HCT-116 colon
[2] = system: CAKI-1 renal
[3] = system: HOP-92 NSCLC
[4] = system: KM12 colon
[5] = system: SK-MEL-2 melanoma
[6] = system: SW-620 colon
[7] = system: IGROV1 ovarian
[8] = system: NCI-H460 lung
[9] = system: MCF7 breast
[10] = system: HS 578T breast

Compound	TGI [1]	TGI [2]	TGI [3]	TGI [4]	TGI [5]	TGI [6]	TGI [7]	TGI [8]	TGI [9]	TGI [10]	GI50 [3]	GI50 [4]	GI50 [6]	GI50 [9]	GI50 [10]	GI50 [2]	GI50 [5]	GI50 [7]	GI50 [8]
Nn1c(CCCCCCCCc2nnc(COc3c(O)ccc4ccccc34)n2N)nnc1COc1c(O)ccc2ccccc12	> 100 µM	> 100 µM	> 100 µM	> 100 µM	> 100 µM	> 100 µM	> 100 µM	> 100 µM	> 100 µM										
C/C(=N/NC(N)=S)c1ccc2ccccc2c1	78.4 µM		> 100 µM	> 100 µM	51.1 µM	> 100 µM	> 100 µM	78.1 µM											
Nc1nn2c(C(Br)Br)cc(C(Br)Br)nc2c1[N+](=O)[O-]	2.23 µM	0.954 µM		2.83 µM		0.77 µM	3.38 µM	7.5 µM		6.28 µM									
COc1ccc(-c2cc(=O)c3cc4c(cc3[nH]2)OCO4)c(OC)c1OC	> 100 µM	> 100 µM	> 100 µM	> 100 µM	> 100 µM	> 100 µM	> 100 µM	> 100 µM											
O=C1CCC(=Nc2ccc(Cl)cc2)N1C(=O)COc1ccc(OCC(=O)N2C(=O)CSC2=Nc2ccc(Cl)cc2)cc1	> 100 µM	> 100 µM	> 100 µM	> 100 µM	> 100 µM	> 100 µM	> 100 µM	> 100 µM	> 100 µM	> 100 µM									
CCCCCCCCCC[C@H](O)[C@H]1CC[C@H]([C@H]2CC[C@H]([C@H](O)CC[C@H](O)CCCCCCC[C@@H](O)CC3=C[C@H](C)OC3=O)O2)O1	> 100 µM	> 100 µM	> 100 µM	> 100 µM	> 100 µM	> 100 µM	> 100 µM	> 100 µM	> 100 µM		> 100 µM	38.1 µM	> 100 µM	3.98 µM					
COc1ccc(CC(CO)NC(=O)OCc2ccccc2)cc1Oc1ccc(CC(CO)NC(=O)OCc2ccccc2)cc1 (centres undefined)	32.3 µM	44.5 µM	46.1 µM	26.9 µM	32.4 µM	> 100 µM	29.3 µM	66.6 µM											
N#Cc1c(-c2ccccc2)/c(=C\Nc2ccc(Cl)cc2)c(=O)n2c1nc1ccccc12	19.6 µM	94.4 µM		> 100 µM	> 100 µM	> 100 µM	> 100 µM	> 100 µM	> 100 µM										
COc1cc2c(cc1OCCCCOc1cc(-c3ccc(F)cc3)nc(C)n1)N=C[C@@H]1CCCN1C2=O	8.59 µM	2.05 µM	6.18 µM	3.67 µM	2.31 µM	4.85 µM	12.2 µM		15.2 µM	2.79 µM									
O=[N+]([O-])C(=C(N1CCCCC1)N1CCCCC1)/C(Cl)=C(\Cl)Br	41.7 µM	26.6 µM	53.4 µM	54.5 µM		38.5 µM	90.8 µM	> 100 µM	88.9 µM	45.4 µM									
CN(C)C(CN)CC1=C(CC(CN)N(C)C)CCC1 (centres undefined)	> 100 µM	> 100 µM	> 100 µM	> 100 µM	> 100 µM	> 100 µM	> 100 µM	> 100 µM	> 100 µM										
CN(C)c1nc(=NCc2ccncc2)ss1	40.7 µM	> 56.3 µM	> 100 µM	> 100 µM		50.7 µM	> 100 µM	> 100 µM	> 100 µM	70.3 µM		> 100 µM							
CCNC(=O)Nc1ccccn1	> 100 µM	> 100 µM	> 100 µM	> 100 µM		> 100 µM	> 100 µM	> 100 µM	> 100 µM	> 100 µM									
Cc1cn2c(/C=C3/C(=O)Nc4cccc(Cl)c43)c(Cl)nc2s1	> 100 µM	> 100 µM	> 100 µM	> 100 µM		> 100 µM	> 100 µM		> 100 µM	42.5 µM									
CCC12C[N+]3([O-])CCc4c([nH]c5ccccc45)C(C(=O)OC)(c4cc5c(cc4OC)N(C)C4C(O)(C(=O)OC)C(OC(C)=O)C6(CC)C=CCN7CCC54C76)CC(C3)C1O2 (centres undefined)	11.6 µM	30.1 µM	21.3 µM	15.9 µM	0.649 µM	20.4 µM	14.9 µM	43.5 µM											
COC(=O)c1csnn1	> 100 µM			> 100 µM		> 100 µM	> 100 µM	> 100 µM											
NC(=O)C(=O)N/N=C1/c2ccccc2CC1C1(O)C(=O)Nc2c(Cl)cc(Cl)cc21 (centres undefined)	> 100 µM	> 100 µM	> 100 µM	> 100 µM	> 100 µM	> 100 µM	> 100 µM	> 100 µM											
COc1cccc(-c2cc(=O)c3c(C)cc(C)nc3[nH]2)c1	> 59.9 µM		> 85 µM	16.6 µM	97.6 µM	> 100 µM	> 67.4 µM	> 42.1 µM	27.3 µM	> 100 µM									
CCOP(=O)(OCC)C1C(CO)OC(n2ccc(=O)[nH]c2=O)C1O (centres undefined)	> 100 µM	> 100 µM	> 100 µM	> 100 µM	> 100 µM	> 100 µM	> 100 µM	> 100 µM		> 100 µM									
C=C(C)CCC(=O)[C@](C)(O)[C@H]1[C@H](O)C[C@@]2(C)[C@@H]3CCc4c(cc(OC5OC(CO)C(O)C(O)C5O)c(O)c4C)C3(C)C(=O)C[C@]12C (some centres undefined)	> 100 µM	> 100 µM	> 100 µM	> 100 µM	> 100 µM	> 100 µM	> 100 µM	> 100 µM	> 100 µM										
Oc1ccc(-c2nnc3sc(-c4ccc(F)cc4)nn23)cc1		> 100 µM	> 100 µM	> 100 µM	> 100 µM	> 100 µM	> 100 µM	> 100 µM	> 100 µM	40.2 µM	46.1 µM	> 100 µM	> 100 µM	59.7 µM	16.1 µM	48.8 µM	> 100 µM	55.8 µM	> 100 µM
COC(=O)NN(C(=O)OC)c1c(-c2ccccc2)nc(SC)n1N	> 100 µM	> 100 µM		> 100 µM	> 100 µM	> 100 µM	> 100 µM	> 100 µM	> 100 µM	> 100 µM									
